“Also recorded” adds a separate entry of the source.
Assays:
HL-60 cells [1] = assay: Reactive oxygen species (peroxides), DCFH-DA flow cytometry; type: cell-based, human
Method: FIG. 4. Boswellic acid analogs produce early generation of reactive oxygen species. In order to determine the intracellular content of intracellular peroxides, HL-60 cells in both treated and untreated control groups of 1×10^6 cells were incubated with […] of DCFH-DA for 30 min prior to termination of a 6 hr treatment with the indicated concentrations of compound designated “c” which is the compound of formula 1, wherein R3=COCH2CH2CH3, […], R4+R5=O. Treatment with the compound designated “c” was associated with an increase in DCFH-DA derived fluorescence. The compound of formula 1 where R3=COCH2CH2CH3, […], R4+R5=O was taken as a prototype to investigate the mechanism of cell death mediated by induction of apoptosis. […] At the highest concentration used the peroxide generation was relatively of low order because of ROS associated cell death. BSO was used as positive control. The endogenous generation of peroxides was measured using a non-fluorescent probe DCFH-DA which upon entering the cell is deesterified to DCFH which is oxidized by the reactive oxygen species to a fluorescent product DCF that remains entrapped within the cells offering analysis by flow cytometery [[…] et al, 2006]. […] Thereafter cells were washed and stained for 1 hr with DCFH-DA and analysed on flow cytometer. […]

HL-60 cells [2] = assay: Reduced glutathione content, fluorimetric; type: cell-based, human; settings: HL-60, 6 hr
Method: FIG. 7. Modulation of reduced glutathione contents in HL-60 cells by boswellic acid analogs. GSH content was measured in HL-60 cells as described in the Examples section, using treated and untreated groups of about 3×10^6 cells per well and 3 mL of RPMI media. Cells were treated with buthionine sulfoxime (BSO), N-acetyl cysteine (NAC), a compound designated “c” (formula 1 compound wherein R3=COCH2CH2CH3, […] and R4+R5=O), and NAC+the compound “c”. Treatment concentrations were as indicated. […] The depleted GSH stores were restored by an anti-oxidant n-acetyl cysteine. Depletion of GSH content is an important indicator of predisposition conditions leading to cellular injury. Loss of mitochondrial functions as a result of GSH depletion may affect the energy status of the cells and therefore, is critical event in the induction of cell injury. GSH in general offers protection by scavenging reactive oxygen species and electrophiles formed within the cells. The GSH content of cells recovered back to normal or NAC control when cells were treated with sulfhydral groups antioxidant, N-acetyl cysteine (NAC). […] Reduced glutathione content was determined in 3×10^6 HL-60 cells/well/3 mL medium in a 6-well plate after incubation with SS-145 for 6 hr. Cells were washed and the reduced glutathione contents were extracted and determined using a standard fluorimetric method [[…] et al., 1976]. […]

caspase-3 in HL-60 cells = assay: Caspase-3 activation, colorimetric, HL-60; type: cell-based, human
Method: (§1) FIGS. 8A-8B. Caspase activation in HL-60 cells by boswellic acid analogs. FIG. 8A depicts the results of a colorimetric evaluation of caspase-3 activation in HL-60 cells and Molt-4 cells. Cells were treated with a compound designated “c” (formula 1 compound wherein R3=COCH2CH2CH3, […] and R4+R5=O) at concentrations indicated for 6 hours. Caspase-3 inhibitor (DEVD-fmk) was added 30 min prior to the addition of caspase-3 substrate (DEVD-pNA) to the lysate. Data are mean of triplicate determinations with coefficients of variation less than 10%. […] Caspase-9 inhibitor LEHD-CHO was added 30 min prior to the addition of caspase-9 substrate to validate the specificity of caspase-9. Caspase-9 activity was measured fluorometrically. Data are a mean of triplicate determinations with a coefficient of variation of less than 10%. Caspases are important cysteine-proteases that are involved in the cleavage of DNA specifically producing 180 bp DNA fragments. The enzymes act through different signaling pathways. […] Caspase-9 activity was determined fluorometrically and caspase-3 colorimetrically using kits and the instruction provided by the manufacturer (BD pharmingen, USA). Caspase-3 activity was determined in both Molt-4 and HL-60 leukemia cells while caspase-9 was determined in HL-60 cells.

[3] = system: caspase-3 in Molt-4 cells; assay: Caspase-3 activation, colorimetric, Molt-4; type: cell-based, human; settings: 6 hr
Method: as §1

caspase-9 in HL-60 cells = assay: Caspase-9 activation, fluorometric, HL-60; type: cell-based, human; settings: HL-60, 50 μM, 6 hours
Method: as §1

[4] = system: Ehrlich Ascitic Carcinoma solid tumor; assay: Ehrlich ascitic tumor (solid) growth inhibition in mice; type: in vivo, Swiss albino mice; settings: 9 days, evaluated day 13
Method: FIG. 9. Tumor growth inhibition by boswellic acid analogs. Mice treated intraperitoneally with a compound (designated “c”) of formula 1, wherein R3=COCH2CH2CH3, R1=H, R4+R5=O, have shown 22% tumor growth inhibition at a dose of about 50 mg/kg of body weight, and 41% tumor growth inhibition at a dose of 100 mg/kg of body weight.
Swiss albino mice of 6-8 weeks, weighing 18-23 g of single sex were used. For the initiation of experiment, 1×10^7 cells of EAC (Ehrlich Ascitic Carcinoma) cells were transplanted intramuscularly (i.m.) in 32 mice for the development of solid tumors. The day of tumor transplantation was assigned as day 0. Next day (day-1) animals were randomly selected and divided into four groups having equal number of mice in each group of similar body wt. Groups I and II were treated with compound of formula 1 where R3=COCH2CH2CH3, R1=H, R4+R5=O at the dose of 50 mg/kg b, wt and 100 mg/kg b. wt. intraperitoneally, respectively. Group III received 0.2 ml of 0.85% normal saline and served as normal control while group IV serving as positive control was treated with 5-FU (22 mg/kg b. wt.) intraperitoneally. The total duration of treatment was of 9 days. The evaluation of effect of treatment on tumor was done on 13th day. Ehrlich ascites cells (1×10^7) were injected intramuscularly in the right thigh muscles and on the following day animals started receiving treatment intraperitoneally in 0.5% Tween-20 daily at the indicated doses for 9 days. The growth of tumor and the efficacy of compound of formula 1, where R3=COCH2CH2CH3, R1=H, R4+R5=O in inhibiting tumor growth were evaluated on day 13 in terms of the weight of the tumor in treated and control groups count. The determination of solid tumor growth inhibition against EAT was calculated as percent tumor growth regression according to the following: […]

Question: Which results are given for `CCCC(=O)OC1CCC2(C)C(CCC3(C)C2C(=O)C=C2C4C(C)C(C)CCC4(C)CCC23C)C1(C)C(=O)O` (stereo not drawn) [R3=COCH2CH2CH3, R1=H, R4+R5=O]?
Answer: peroxide positive cell population (HL-60 cells [1]; HL-60, 50 μg/ml, 6 hr): 79%; ROS / peroxide generation (concentration dependence) (HL-60 cells [1]; HL-60, 6 hr, DCFH-DA): concentration related increase in ROS generation; also recorded: dose dependent increase; reduced glutathione (GSH) content (HL-60 cells [2]): strongly depleted GSH content; caspase-3 stimulation (caspase-3 in HL-60 cells; 50 μM): about 50%; caspase-3 activation (caspase-3 in HL-60 cells; HL-60 cells, 6 hr): about 50%; caspase-3 activation [3]: about 50%; caspase-9 activity stimulation (caspase-9 in HL-60 cells): 4-5 fold; tumor growth inhibition ([4]; 50 mg/kg intraperitoneally): 22%; tumor growth inhibition ([4]; 100 mg/kg intraperitoneally): 41%

From patent US20090298938A1, “USE OF SEMI SYNTHETIC ANALOGUES OF BOSWELLIC ACIDS FOR ANTICANCER ACTIVITY” (COUNCIL OF SCIENTIFIC & INDUSTRIAL RESEARCH, priority 2008, published 2009)
